# Measurements from patent US4847306A, “Antihypercholesterolemic compounds” (Merck & Co., Inc., priority 1988, dated 1989).
# System: HMG-CoA reductase
# Assay: HMG-CoA Reductase Inhibition Assay (in vitro, intrinsic inhibitory activity)
# Type: biochemical
# Conditions: compactin assigned a value of 100; IC50 of test compound compared with that of compactin determined simultaneously; tested as sodium salt of dihydroxy acid form; solubilized rat liver microsomal enzyme
# Procedure: The intrinsic HMG-CoA reductase inhibition activity of the claimed compounds is measured in the in vitro protocol published in J. Med. Chem., 28, P. 347-358 (1985) and described below:
# Isolation of HMG-CoA Reductase. Male Holtzman Sprague-Dawley rate (225-250 g) were kept on reversed lighting and fed Purina rat chow containing 3% cholestyramine for 7 days preceding their sacrifice by CO2 asphyxiation. Livers were removed 6 hours into the dark cycle and used immediately to prepare microsomes. HMG-CoA reductase was solubilized from the freshly prepared microsome by the method of Heller and Shrewsbury [J. Boil Chem., 1976, 251,3815], and purified through the second ammonium sulfate precipitation step as described by Kleinsek et al., [Proc. Natl. Acad. Sci. USA, 1977, 74, 1431]. The enzyme preparation was tested for HMG-CoA reductase potency and diluted with 100 mM phosphate buffer (pH 7.2) so that 100 μL of the enzyme solution, when added to the assay control, gave a value of 50,000-60,000 dpm. The enzyme preparation was stored at -80° C.
# HMG-CoA Reductase Inhibition Assay. The assay is essentially the procedure of Shefer et al., [J. Lipid Res., 1972, 13, 402]. The complete assay medium contained the following in a total volume of 0.8 mL: phosphate buffer, pH 7.2, 100 mM; MgCl2, 3 mM; NADP, 3 mM; glucose 6-phospate, 10 mM; glucose-6-phosphate dehydrogenase, 3 enzyme units; reduced glutathione, 50 mM; HMG-CoA (glutaryl-3-^14C, New England Nuclear), 0.2 mM (0.1 μCi); and partially purified enzyme stock solution, 100 μL.
# Test compounds or compactin (after first being converted to the sodium salt of their dihydroxy acid form in situ by addition of 1N NaOH (1 equiv)) were added to the assay system in 10-μL volumes at multiconcentration levels. After a 40-minute incubation at 37° C. with shaking and exposure to air, the reaction was stopped by the addition of 0.4 mL of 8N HCl. After an additional 30-minute incubation period at 37° C. to ensure the complete lactonization of mevalonic acid to mevalonolactone, 0.2 mL of the mixture was added to an 0.5×5.0 cm column containing 100-200-mesh Bio-Rex 5, chloride form (Bio-Rad), wetted with distilled water, as described by Alberts et al. [J. Proc. Natl. Acad. Sci. U.S.A., 1980, 77, 3957]. The unreacted [^14 C]HMG-CoA was absorbed on the resin and the [^14 C]mevalonolacetone was eluted with distilled water (2×1 mL) directly into 7-mL scintillation vials. Five milliliters of Aquasol-2 (New England Nuclear) was added to each vial, and radioactivity was measured in a Packard Tri Carb Prias scintillation counter. IC50 values were determined by plotting percentage inhibition against test compound concentration and fitting a straight line to the resulting data by using the least-squares method. For estimation of relative inhibitory potencies, compactin was assigned a value of 100 and the IC50 value of the test compound was compared with that of compactin determined simultaneously.
row,Compound,Relative Potency
1,C[C@H]1C=C2C=C[C@H](C)[C@H](CC[C@@H](O)C[C@@H](O)CC(=O)O)[C@H]2[C@@H](OC(=O)C2(Cc3ccc(O)cc3)CCC2)C1,200
2,C[C@H]1C=C2C=C[C@H](C)[C@H](CC[C@@H](O)C[C@@H](O)CC(=O)O)[C@H]2[C@@H](OC(=O)C2(C)CCCC2)C1,188
3,C[C@H]1C=C2C=C[C@H](C)[C@H](CC[C@@H](O)C[C@@H](O)CC(=O)O)[C@H]2[C@@H](OC(=O)C2(CCCO)CCC2)C1,100
4,C[C@H]1C=C2C=C[C@H](C)[C@H](CC[C@@H](O)C[C@@H](O)CC(=O)O)[C@H]2[C@@H](OC(=O)C2(C)CCCCC2)C1,217
5,C[C@H]1C=C2C=C[C@H](C)[C@H](CC[C@@H](O)C[C@@H](O)CC(=O)O)[C@H]2[C@@H](OC(=O)C2(Cc3ccccc3)CCC2)C1,156

# Further lines, results first:
row,Relative Potency,Compound
1,167,CSC1(C(=O)O[C@H]2C[C@@H](C)C=C3C=C[C@H](C)[C@H](CC[C@@H](O)C[C@@H](O)CC(=O)O)[C@H]32)CCCC1
2,76,C[C@H]1C=C2C=C[C@H](C)[C@H](CC[C@@H](O)C[C@@H](O)CC(=O)O)[C@H]2[C@@H](OC(=O)C2(C)CC2)C1
3,240,CSC1(C(=O)O[C@H]2C[C@@H](C)C=C3C=C[C@H](C)[C@H](CC[C@@H](O)C[C@@H](O)CC(=O)O)[C@H]32)CCC1
4,88,C[C@H]1C=C2C=C[C@H](C)[C@H](CC[C@@H](O)C[C@@H](O)CC(=O)O)[C@H]2[C@@H](OC(=O)C2(CO)CCC2)C1
5,171,C[C@H]1C=C2C=C[C@H](C)[C@H](CC[C@@H](O)C[C@@H](O)CC(=O)O)[C@H]2[C@@H](OC(=O)C2(C)CCC2)C1
